# Active and inactive are the calls of the source. The rule behind the calls is not given here.
# Assays:
# [1] = target: T1, Peptidyl-prolyl cis-trans isomerase NIMA-interacting 1 (Homo sapiens, UniProt Q13526); test: Inhibition of full length pin1 (unknown origin) expressed in Escherichia coli
# [2] = Antiproliferative activity against human HCC cells assessed as cell viability incubated for 72 hrs by alamar blue dye based assay; assay type: toxicity; details: HCC cells
# [3] = target: Peptidyl-prolyl cis-trans isomerase NIMA-interacting 4 (Homo sapiens) (UniProt Q9Y237); test: Inhibition of full length pin4 (unknown origin) expressed in Escherichia coli
# Homo sapiens = species on record: Homo sapiens; test: Inhibition of FKBP12 (unknown origin) expressed in Escherichia coli
# [4] = target: Peptidyl-prolyl cis-trans isomerase A (Homo sapiens) (UniProt P62937); test: Inhibition of Cyclophilin A (unknown origin) expressed in Escherichia coli
# [5] = target: T1, Peptidyl-prolyl cis-trans isomerase NIMA-interacting 1; test: Binding affinity to GST-tagged pin1 (unknown origin) assessed as thermal stabilization at 1 uM at 48 to 58 degreeC by cellular thermal shift assay
# [6] = target: T1, Peptidyl-prolyl cis-trans isomerase NIMA-interacting 1; test: Binding affinity to GST-tagged pin1 (unknown origin) assessed as dissociation constant by SPR analysis
# [7] = target: T1, Peptidyl-prolyl cis-trans isomerase NIMA-interacting 1; test: Inhibition of pin1 in human SK-HEP1 cells at 5 uM by mass spectrometry analysis; assay type: cell-based
# [8] = Chemical stability of compound at pH 7 measured after 24 hrs by HPLC analysis; assay type: physicochemical; details: buffer, pH 7, 24 h
# [9] = Chemical stability of compound by HPLC analysis; assay type: physicochemical
# SK-HEP1 [10] = test: Antiproliferative activity human SK-HEP1 cells assessed as cell viability measured up to 120 hrs; assay type: functional, cell-based
# SK-HEP1 [11] = test: Antiproliferative activity human SK-HEP1 cells assessed as cell viability measured at 96 hrs; assay type: functional, cell-based
# SK-HEP1 [12] = test: Antiproliferative activity human SK-HEP1 cells assessed as cell viability measured at 120 hrs; assay type: functional, cell-based
# SK-HEP1 [13] = test: Antiproliferative activity human SK-HEP1 cells assessed as inhibition of cell proliferation incubated for 120 hrs; assay type: functional, cell-based; details: dose <= 2.0 µM
# Hep 3B2 = test: Antiproliferative activity human Hep3B cells assessed as inhibition of cell proliferation incubated for 120 hrs; assay type: functional, cell-based
# SK-HEP1 [14] = test: Induction of cell cycle arrest in human SK-HEP1 cells assessed as accumulation of cells at S phase by PI staining based flow cytometry analysis; assay type: functional
# HCC = test: Induction of apoptosis in human HCC cells at 5 uM by Annexin V/FITC staining based flow cytometry analysis; assay type: functional, cell-based
# SK-HEP1 [15] = test: Inhibition of cell migration in human SK-HEP1 cells at 5 uM incubated for 24 hrs by crystal violet staining based microscopic analysis; assay type: functional
# SK-HEP1 [16] = test: Inhibition of cell migration in human SK-HEP1 cells at 5 uM incubated for 24 hrs by wound healing assay; assay type: functional, cell-based
# [17] = target: T1, Peptidyl-prolyl cis-trans isomerase NIMA-interacting 1; test: Inhibition of pin1 in human SK-HEP1 cells assessed as reduction in c-myc level at 5 uM incubated for 24 hrs by immunoblotting analysis; assay type: cell-based
# [18] = target: T1, Peptidyl-prolyl cis-trans isomerase NIMA-interacting 1; test: Inhibition of pin1 in human SK-HEP1 cells assessed as reduction in beta-catenin level at 5 uM incubated for 24 hrs by immunoblotting analysis; assay type: cell-based
# [19] = Drug localization in nucleus of human SK-HEP1 cells at 5 uM incubated for 24 hrs by Hoechst 33342 staining based fluorescence microscopic analysis; assay type: ADME, subcellular; details: sk-hep1, 24 h
# SK-HEP1 [20] = test: Upregulation of miR-29b expression in human SK-HEP1 cells at 5 uM incubated for 36 hrs by RT-PCR analysis; assay type: functional, cell-based
# SK-HEP1 [21] = test: Upregulation of miR-122 expression in human SK-HEP1 cells at 5 uM incubated for 36 hrs by RT-PCR analysis; assay type: functional, cell-based
# SK-HEP1 [22] = test: Upregulation of miR-146a expression in human SK-HEP1 cells at 5 uM incubated for 36 hrs by RT-PCR analysis; assay type: functional, cell-based
# SK-HEP1 [23] = test: Upregulation of let7a expression in human SK-HEP1 cells at 5 uM incubated for 36 hrs by RT-PCR analysis; assay type: functional, cell-based
# SK-HEP1 [24] = test: Antiproliferative activity against human SK-HEP1 cells transfected with human pin1 assessed as cell viability at 5 uM incubated for 72 hrs; assay type: functional, cell-based
# SK-HEP1 [25] = test: Antitumor activity against human SK-HEP1 cells xenografted in female BALB/c mouse assessed as reduction in tumor growth at 2.5 mg/kg, po measured every 4 days; assay type: functional, organism-based; details: time 4.0 day
# [26] = Toxicity in female BALB/c mouse implanted with human SK-HEP1 cells assessed as effect on body weight at 2.5 mg/kg, po measured every 4 days; assay type: organism-based; details: in vivo, 96 h, time 4 day
# SK-HEP1 [27] = test: Antitumor activity against human SK-HEP1 cells xenografted in female BALB/c mouse assessed as downregulation of c-myc level at 2.5 mg/kg, po measured every 4 days by immunoblotting analysis; assay type: functional, organism-based; details: time 4.0 day
# SK-HEP1 [28] = test: Antitumor activity against human SK-HEP1 cells xenografted in female BALB/c mouse assessed as downregulation of beta-catenin level at 2.5 mg/kg, po measured every 4 days by immunoblotting analysis; assay type: functional, organism-based; details: time 4.0 day
# [29] = target: Peptidyl-prolyl cis-trans isomerase NIMA-interacting 1 (Mus musculus) (UniProt Q9QUR7); test: Binding affinity to mouse pin1
# SK-HEP1 [30] = test: Antitumor activity against human SK-HEP1 cells xenografted in c-Myc/Alb-Cre transgenic female BALB/c mouse model assessed as downregulation of beta-catenin level in liver at 2.5 mg/kg, po measured every 4 days by immunoblotting analysis; assay type: functional, organism-based; details: time 4.0 day
# SK-HEP1 [31] = test: Antitumor activity against human SK-HEP1 cells xenografted in c-Myc/Alb-Cre transgenic female BALB/c mouse model assessed as downregulation of c-myc level in liver at 2.5 mg/kg, po measured every 4 days by immunoblotting analysis; assay type: functional, organism-based; details: time 4.0 day
# [32] = Drug distribution in BALB/c mouse liver measured after 24 hrs by HPLC analysis; assay type: ADME, tissue-based; details: in vivo
# [33] = Drug distribution in BALB/c mouse tumor measured after 24 hrs by HPLC analysis; assay type: ADME, tissue-based, Neoplasm; details: in vivo
# SK-HEP1 [34] = test: Antitumor activity against human SK-HEP1 cells xenografted in female BALB/c mouse assessed as increase in pin1 level in brain at 2.5 mg/kg, po measured every 4 days; assay type: functional, organism-based; details: time 4.0 day
# SK-HEP1 [35] = test: Antitumor activity against human SK-HEP1 cells xenografted in female BALB/c mouse assessed as increase in pin1 level in liver at 2.5 mg/kg, po measured every 4 days; assay type: functional, organism-based; details: time 4.0 day
# SK-HEP1 [36] = test: Antitumor activity against human SK-HEP1 cells xenografted in female BALB/c mouse assessed as increase in pin1 level in spleen at 2.5 mg/kg, po measured every 4 days; assay type: functional, organism-based; details: time 4.0 day
# SK-HEP1 [37] = test: Antitumor activity against human SK-HEP1 cells xenografted in female BALB/c mouse assessed as increase in pin1 level in kidney at 2.5 mg/kg, po measured every 4 days; assay type: functional, organism-based; details: time 4.0 day
# SK-HEP1 [38] = test: Antitumor activity against human SK-HEP1 cells xenografted in female BALB/c mouse assessed as increase in pin1 level in heart at 2.5 mg/kg, po measured every 4 days; assay type: functional, organism-based; details: time 4.0 day
# SK-HEP1 [39] = test: Antitumor activity against human SK-HEP1 cells xenografted in female BALB/c mouse assessed as increase in pin1 level in tumor at 2.5 mg/kg, po measured every 4 days; assay type: functional, organism-based; details: time 4.0 day
# [40] = Metabolic stability in mouse microsomes measured after 120 mins; assay type: ADME, Liver, Microsome; details: 2 h
# [41] = Toxicity in c-Myc/Alb-Cre transgenic mouse assessed as effect on ALT level at 2.5 mg/kg, po; assay type: organism-based; details: in vivo
# [42] = Toxicity in c-Myc/Alb-Cre transgenic mouse assessed as effect on AST level at 2.5 mg/kg, po; assay type: organism-based; details: in vivo
# [43] = Toxicity in c-Myc/Alb-Cre transgenic mouse assessed as effect on TP level at 2.5 mg/kg, po; assay type: organism-based; details: in vivo
# [44] = Toxicity in c-Myc/Alb-Cre transgenic mouse assessed as effect on ALP level at 2.5 mg/kg, po; assay type: organism-based; details: in vivo
# [45] = Toxicity in c-Myc/Alb-Cre transgenic mouse assessed as effect on TBIL level at 2.5 mg/kg, po; assay type: organism-based; details: in vivo
# [46] = Toxicity in c-Myc/Alb-Cre transgenic mouse assessed as effect on ALB level at 2.5 mg/kg, po; assay type: organism-based; details: in vivo
# [47] = Toxicity in c-Myc/Alb-Cre transgenic mouse assessed as heart damage at 2.5 mg/kg, po; assay type: organism-based; details: in vivo
# [48] = Toxicity in c-Myc/Alb-Cre transgenic mouse assessed as liver damage at 2.5 mg/kg, po; assay type: organism-based; details: in vivo
# [49] = Toxicity in c-Myc/Alb-Cre transgenic mouse assessed as spleen damage at 2.5 mg/kg, po; assay type: organism-based; details: in vivo
# [50] = Toxicity in c-Myc/Alb-Cre transgenic mouse assessed as lung damage at 2.5 mg/kg, po; assay type: organism-based; details: in vivo
# [51] = Toxicity in c-Myc/Alb-Cre transgenic mouse assessed as kidney damage at 2.5 mg/kg, po; assay type: organism-based; details: in vivo
# [52] = target: Voltage-gated inwardly rectifying potassium channel KCNH2 (Homo sapiens, UniProt Q12809)
# Chain of Voltage-gated inwardly rectifying potassium channel KCNH2 (Q12809 whole entry): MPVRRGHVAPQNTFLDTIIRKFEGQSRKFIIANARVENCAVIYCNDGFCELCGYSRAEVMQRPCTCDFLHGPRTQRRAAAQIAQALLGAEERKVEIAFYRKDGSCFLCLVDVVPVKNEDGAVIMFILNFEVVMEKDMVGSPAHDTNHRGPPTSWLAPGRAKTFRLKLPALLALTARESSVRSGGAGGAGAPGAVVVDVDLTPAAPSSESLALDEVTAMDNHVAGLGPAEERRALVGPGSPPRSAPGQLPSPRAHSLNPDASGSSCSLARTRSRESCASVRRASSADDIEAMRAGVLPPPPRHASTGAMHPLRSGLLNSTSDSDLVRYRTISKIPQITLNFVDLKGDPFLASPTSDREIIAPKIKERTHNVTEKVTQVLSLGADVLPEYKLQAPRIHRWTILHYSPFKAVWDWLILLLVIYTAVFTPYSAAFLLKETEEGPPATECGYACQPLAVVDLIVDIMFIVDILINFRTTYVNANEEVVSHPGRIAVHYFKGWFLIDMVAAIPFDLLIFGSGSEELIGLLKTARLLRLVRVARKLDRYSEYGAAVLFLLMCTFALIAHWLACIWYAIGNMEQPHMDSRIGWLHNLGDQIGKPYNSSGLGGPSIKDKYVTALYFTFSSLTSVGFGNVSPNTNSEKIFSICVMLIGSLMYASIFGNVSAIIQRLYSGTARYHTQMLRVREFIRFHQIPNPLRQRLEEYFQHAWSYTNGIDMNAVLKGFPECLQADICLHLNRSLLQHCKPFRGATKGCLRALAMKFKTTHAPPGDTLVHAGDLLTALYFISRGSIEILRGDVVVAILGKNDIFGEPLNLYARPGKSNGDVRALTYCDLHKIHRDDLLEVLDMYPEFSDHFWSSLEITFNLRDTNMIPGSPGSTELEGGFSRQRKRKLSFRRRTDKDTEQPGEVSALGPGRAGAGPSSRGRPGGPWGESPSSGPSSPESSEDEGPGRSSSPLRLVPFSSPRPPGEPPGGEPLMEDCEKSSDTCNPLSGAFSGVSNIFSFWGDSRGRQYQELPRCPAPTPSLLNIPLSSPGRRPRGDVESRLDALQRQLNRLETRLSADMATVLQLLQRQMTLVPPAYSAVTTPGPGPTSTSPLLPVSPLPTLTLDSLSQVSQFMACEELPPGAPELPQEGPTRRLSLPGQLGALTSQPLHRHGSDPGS
# T1 sequence (Q13526 whole entry): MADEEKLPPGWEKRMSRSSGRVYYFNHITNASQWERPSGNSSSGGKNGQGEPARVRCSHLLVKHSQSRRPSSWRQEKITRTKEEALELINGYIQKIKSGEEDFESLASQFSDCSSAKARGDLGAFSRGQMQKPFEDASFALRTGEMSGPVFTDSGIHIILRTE
# Chain of Peptidyl-prolyl cis-trans isomerase NIMA-interacting 4 (Homo sapiens) (Q9Y237 whole entry): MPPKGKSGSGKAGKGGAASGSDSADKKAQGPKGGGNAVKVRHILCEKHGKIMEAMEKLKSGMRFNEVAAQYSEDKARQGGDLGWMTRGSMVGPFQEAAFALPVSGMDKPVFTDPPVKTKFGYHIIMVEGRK
# Chain of Peptidyl-prolyl cis-trans isomerase A (Homo sapiens) (P62937 whole entry, looked up): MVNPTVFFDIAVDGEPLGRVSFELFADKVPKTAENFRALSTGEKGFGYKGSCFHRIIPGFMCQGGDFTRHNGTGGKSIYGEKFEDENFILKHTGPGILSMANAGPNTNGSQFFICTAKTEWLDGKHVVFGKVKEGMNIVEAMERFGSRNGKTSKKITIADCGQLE
# Chain of Peptidyl-prolyl cis-trans isomerase NIMA-interacting 1 (Mus musculus) (Q9QUR7 whole entry): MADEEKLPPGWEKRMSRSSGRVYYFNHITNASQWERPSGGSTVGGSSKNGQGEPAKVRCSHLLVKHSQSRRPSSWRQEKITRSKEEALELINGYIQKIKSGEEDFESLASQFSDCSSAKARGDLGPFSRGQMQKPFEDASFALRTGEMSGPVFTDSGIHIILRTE
compound,measurement,setting,value
Nc1nc(OCc2ccc3c(c2)OCO3)c2nc[nH]c2n1,IC50,[1],64.4 nM
same,IC50 at 72 h,[2],2600 nM
same,inhibition,[3],inactive
same,inhibition,Homo sapiens,inactive
same,inhibition,[4],inactive
same,Activity,[5],Active
same,Kd,[6],154 nM
same,inhibition,[7],Active
same,Stability,[8],Stable
same,Stability,[9],Stable
same,Activity,SK-HEP1 [10],Active
same,Activity,SK-HEP1 [11],Active
same,Activity,SK-HEP1 [12],Active
same,Activity,SK-HEP1 [13],Active
same,Activity,Hep 3B2,Active
same,Activity,SK-HEP1 [14],Active
same,Activity,HCC,Active
same,inhibition,SK-HEP1 [15],Active
same,inhibition,SK-HEP1 [16],Active
same,inhibition,[17],Active
same,inhibition,[18],Active
same,Drug uptake,[19],Active
same,Activity,SK-HEP1 [20],Active
same,Activity,SK-HEP1 [21],Active
same,Activity,SK-HEP1 [22],Active
same,Activity,SK-HEP1 [23],Active
same,Activity,SK-HEP1 [24],Active
same,Activity,SK-HEP1 [25],Active
same,Activity,[26],Non-toxic
same,Activity,SK-HEP1 [27],Active
same,Activity,SK-HEP1 [28],Active
same,Activity,[29],Active
same,Activity,SK-HEP1 [30],Active
same,Activity,SK-HEP1 [31],Active
same,Drug uptake,[32],Active
same,Drug uptake,[33],Active
same,Activity,SK-HEP1 [34],Active
same,Activity,SK-HEP1 [35],Active
same,Activity,SK-HEP1 [36],Active
same,Activity,SK-HEP1 [37],Active
same,Activity,SK-HEP1 [38],Active
same,Activity,SK-HEP1 [39],Active
same,Stability,[40],Stable
same,Activity,[41],Non-toxic
same,Activity,[42],Non-toxic
same,Activity,[43],Non-toxic
same,Activity,[44],Non-toxic
same,Activity,[45],Non-toxic
same,Activity,[46],Non-toxic
same,Activity,[47],Non-toxic
same,Activity,[48],Non-toxic
same,Activity,[49],Non-toxic
same,Activity,[50],Non-toxic
same,Activity,[51],Non-toxic
same,IC50,[52],> 30000 nM
